Assay results published in patent US6423689B1, “Peptidyl calcium channel blockers” (Warner-Lambert Company, priority 1997, dated 2002).

Target: T1, N-type Ca2+ channels in IMR-32 cells (Homo sapiens, UniProt Q00975)
T1 construct: host or cells: IMR-32 cells, differentiated with dibutyryl cAMP and bromodeoxyuridine
Test: Inhibition of N-type calcium flux in IMR-32 cells (Indo-1 fluorescence, nitrendipine present)
Assay type: cell-based
Settings: 1 μM
Experimental: Measurement of N-type Ca^2+ Channel Blocking Potencies of Compounds in IMR-32 Cells Using the Fluorescent Ca^2+ Indicator Indo-1
IMR-32 cells are a human tumoral cell line of neural origin. […] Calcium flux into these cells may be induced by stimulation with elevated potassium concentrations. The L-channel component of calcium flux may be blocked by adding 5 μM nitrendipine. The remaining component of calcium entry into the IMR-32 cells is due to calcium flux through N-type calcium channels. Intracellular calcium concentrations are measured using the fluorescent calcium indicator Indo 1. The effect of drug concentration on calcium uptake is studied.
The IMR-32 cell line was obtained from the American Type Culture Collection (Rockville, Md.). Cells were grown in Eagle's Minimum Essential Medium with Eagle's salts supplemented with 10% fetal bovine serum, 2 mM L-Gln and antibiotic/antimycotic mixture (Gibco). […] After 7 to 13 days of differentiation, cells were detached using 0.5 mM EDTA and loaded with 5 μM Indo-1 acetoxymethyl ester (Molecular Probes, Eugene, OR) at […] for 45 minutes. Loaded cells were washed twice, resuspended (˜10^7 cells/mL) in assay buffer (10 mM HEPES/Tris pH 7.4 in Hank's Balanced Salt Solution without bicarbonate or phenol red containing 0.5% bovine serum albumin) and kept on ice until use. Fluorescence measurements were carried out in a Photon Technology International (PTI, South Brunswick, N.J.) Model RF-F3004 spectrofluorometer with dual emission monochromators using excitation at 350 nm and emission at 400 and 490 nm. The instrument was equipped with a thermostated cuvette holder with stirring capabilities as well as with a computer-controlled pump which allowed for reagent addition during measurement. Instrument control and data collection was done by PTI's OSCAR software running on an IBM compatible computer. […] Samples were incubated for 10 minutes at 30° C. and then aliquoted into three 10×10 mm disposable acrylic cuvettes. Emission signals at 400 and 490 nm were acquired from each cuvette at 30° C. for 50 seconds. At 20 seconds after the start of reading, cells were depolarized by the addition of 160 μL of stimulation solution (1M KCl, 68 mM CaCl2) to the cuvette via the computer-controlled pump. Ratio of dual emission signals (400 nm/490 nm), which is proportional to intracellular Ca^2+ concentration, was plotted against time, and the difference between maximal response after stimulation and basal value (before stimulation) was determined. Values obtained in this way were plotted as a function of drug concentration. IC50 values of test compounds were calculated by fitting a four-parameter logistic function to the data using the least squares method.

T1 sequence (Q00975 whole entry): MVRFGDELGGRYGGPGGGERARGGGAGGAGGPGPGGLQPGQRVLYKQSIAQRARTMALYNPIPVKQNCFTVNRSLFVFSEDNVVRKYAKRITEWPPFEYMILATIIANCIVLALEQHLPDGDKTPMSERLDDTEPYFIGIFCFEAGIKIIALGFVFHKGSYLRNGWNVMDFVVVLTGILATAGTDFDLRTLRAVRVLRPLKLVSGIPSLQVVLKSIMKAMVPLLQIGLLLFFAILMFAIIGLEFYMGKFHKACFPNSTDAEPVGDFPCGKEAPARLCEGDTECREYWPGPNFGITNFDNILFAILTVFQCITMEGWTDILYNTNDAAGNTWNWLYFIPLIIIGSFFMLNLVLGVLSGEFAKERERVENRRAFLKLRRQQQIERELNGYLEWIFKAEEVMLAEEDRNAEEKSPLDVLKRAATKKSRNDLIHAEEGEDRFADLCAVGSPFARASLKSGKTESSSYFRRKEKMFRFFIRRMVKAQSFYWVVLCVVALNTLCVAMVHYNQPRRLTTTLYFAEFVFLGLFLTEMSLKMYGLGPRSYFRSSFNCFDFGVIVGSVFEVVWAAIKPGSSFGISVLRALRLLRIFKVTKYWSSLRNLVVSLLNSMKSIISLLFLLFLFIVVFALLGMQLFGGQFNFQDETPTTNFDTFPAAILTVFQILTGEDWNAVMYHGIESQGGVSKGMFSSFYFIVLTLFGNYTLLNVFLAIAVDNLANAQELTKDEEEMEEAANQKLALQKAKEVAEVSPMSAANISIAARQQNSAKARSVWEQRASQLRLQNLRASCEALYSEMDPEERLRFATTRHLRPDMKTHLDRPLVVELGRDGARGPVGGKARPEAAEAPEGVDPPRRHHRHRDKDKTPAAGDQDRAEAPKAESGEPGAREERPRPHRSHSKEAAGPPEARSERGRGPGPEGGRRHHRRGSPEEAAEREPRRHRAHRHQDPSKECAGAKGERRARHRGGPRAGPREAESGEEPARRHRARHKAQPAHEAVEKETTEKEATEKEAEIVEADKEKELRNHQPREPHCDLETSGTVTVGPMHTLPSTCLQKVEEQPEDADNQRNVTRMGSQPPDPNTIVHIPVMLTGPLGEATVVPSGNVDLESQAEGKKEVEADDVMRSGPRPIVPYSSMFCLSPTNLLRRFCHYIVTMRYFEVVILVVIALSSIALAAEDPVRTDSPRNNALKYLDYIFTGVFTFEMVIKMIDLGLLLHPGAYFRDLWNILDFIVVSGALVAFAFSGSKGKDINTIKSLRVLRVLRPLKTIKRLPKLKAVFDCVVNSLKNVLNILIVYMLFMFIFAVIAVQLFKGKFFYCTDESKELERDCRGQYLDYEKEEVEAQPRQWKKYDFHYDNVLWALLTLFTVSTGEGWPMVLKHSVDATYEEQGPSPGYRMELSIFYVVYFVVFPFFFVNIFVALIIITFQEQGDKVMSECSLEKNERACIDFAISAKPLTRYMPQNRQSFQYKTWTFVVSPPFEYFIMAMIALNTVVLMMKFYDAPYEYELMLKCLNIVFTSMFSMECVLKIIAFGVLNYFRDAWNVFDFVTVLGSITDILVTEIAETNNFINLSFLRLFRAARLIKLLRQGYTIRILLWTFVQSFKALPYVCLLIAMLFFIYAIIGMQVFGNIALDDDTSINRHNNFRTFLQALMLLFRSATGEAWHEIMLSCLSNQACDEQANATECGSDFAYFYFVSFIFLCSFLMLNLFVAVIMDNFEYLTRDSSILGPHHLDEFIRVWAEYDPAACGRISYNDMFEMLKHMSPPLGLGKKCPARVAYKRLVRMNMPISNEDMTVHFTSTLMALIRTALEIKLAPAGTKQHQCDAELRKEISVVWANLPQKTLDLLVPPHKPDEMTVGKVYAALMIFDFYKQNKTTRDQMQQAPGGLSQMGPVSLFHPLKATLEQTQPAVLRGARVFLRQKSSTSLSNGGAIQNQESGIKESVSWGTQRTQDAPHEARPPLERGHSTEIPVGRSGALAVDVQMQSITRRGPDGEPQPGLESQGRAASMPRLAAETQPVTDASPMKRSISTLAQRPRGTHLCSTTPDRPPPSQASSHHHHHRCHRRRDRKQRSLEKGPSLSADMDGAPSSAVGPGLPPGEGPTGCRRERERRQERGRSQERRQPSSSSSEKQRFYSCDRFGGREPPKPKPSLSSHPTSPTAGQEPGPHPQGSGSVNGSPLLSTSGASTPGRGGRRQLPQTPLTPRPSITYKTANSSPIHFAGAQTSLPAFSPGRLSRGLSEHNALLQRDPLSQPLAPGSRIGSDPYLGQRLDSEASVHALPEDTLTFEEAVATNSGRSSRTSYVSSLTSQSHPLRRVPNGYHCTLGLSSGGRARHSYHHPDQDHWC
T1 sequence (P54289 25-956 partner limits assumed): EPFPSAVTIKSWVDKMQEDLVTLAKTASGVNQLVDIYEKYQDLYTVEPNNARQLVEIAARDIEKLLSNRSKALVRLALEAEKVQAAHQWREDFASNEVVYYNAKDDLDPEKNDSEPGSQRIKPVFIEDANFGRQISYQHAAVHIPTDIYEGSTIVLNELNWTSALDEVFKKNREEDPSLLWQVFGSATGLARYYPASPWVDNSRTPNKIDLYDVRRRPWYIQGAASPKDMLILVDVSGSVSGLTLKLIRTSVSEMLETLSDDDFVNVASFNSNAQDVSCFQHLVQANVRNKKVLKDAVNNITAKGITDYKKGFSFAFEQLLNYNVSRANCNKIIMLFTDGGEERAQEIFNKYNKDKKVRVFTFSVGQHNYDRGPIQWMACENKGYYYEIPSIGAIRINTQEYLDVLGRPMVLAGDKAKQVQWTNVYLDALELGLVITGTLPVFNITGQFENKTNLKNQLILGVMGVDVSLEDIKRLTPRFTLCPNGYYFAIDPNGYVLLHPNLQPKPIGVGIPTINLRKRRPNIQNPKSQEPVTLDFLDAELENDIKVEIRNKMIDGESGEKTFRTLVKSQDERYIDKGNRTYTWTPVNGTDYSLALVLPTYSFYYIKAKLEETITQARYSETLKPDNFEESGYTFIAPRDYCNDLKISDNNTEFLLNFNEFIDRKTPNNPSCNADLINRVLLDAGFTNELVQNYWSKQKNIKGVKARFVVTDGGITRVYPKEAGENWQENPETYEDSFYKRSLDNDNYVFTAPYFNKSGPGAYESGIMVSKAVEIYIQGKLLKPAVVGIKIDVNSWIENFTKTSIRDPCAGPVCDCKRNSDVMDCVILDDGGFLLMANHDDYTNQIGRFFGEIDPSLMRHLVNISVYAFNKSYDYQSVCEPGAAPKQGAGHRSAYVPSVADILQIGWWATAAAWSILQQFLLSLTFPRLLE
T1 sequence (P54289 957-1103 partner limits assumed): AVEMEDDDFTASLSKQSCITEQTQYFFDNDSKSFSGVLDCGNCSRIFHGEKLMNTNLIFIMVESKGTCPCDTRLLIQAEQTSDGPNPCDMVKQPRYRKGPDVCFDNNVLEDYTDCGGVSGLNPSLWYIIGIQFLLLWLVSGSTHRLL
T1 sequence (P54284 whole entry partner): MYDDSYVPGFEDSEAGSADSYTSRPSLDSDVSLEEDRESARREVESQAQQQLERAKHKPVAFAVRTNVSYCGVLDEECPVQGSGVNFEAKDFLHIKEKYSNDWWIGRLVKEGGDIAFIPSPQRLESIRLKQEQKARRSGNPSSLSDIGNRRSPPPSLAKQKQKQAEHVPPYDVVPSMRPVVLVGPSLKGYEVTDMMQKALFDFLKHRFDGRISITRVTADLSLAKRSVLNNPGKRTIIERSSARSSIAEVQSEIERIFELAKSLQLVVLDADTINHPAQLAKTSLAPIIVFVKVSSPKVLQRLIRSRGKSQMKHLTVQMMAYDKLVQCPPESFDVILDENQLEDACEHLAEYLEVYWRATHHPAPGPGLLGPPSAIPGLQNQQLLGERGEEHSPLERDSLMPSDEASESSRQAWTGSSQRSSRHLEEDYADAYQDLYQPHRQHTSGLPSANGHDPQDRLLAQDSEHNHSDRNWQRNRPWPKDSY

Compound	Inhibition of Calcium Flux in IMR-32 Cells % Inhibition at 1 μM [%]
CCCCNC(=O)N[C@@H](CC(C)C)C(=O)N[C@@H](Cc1ccc(OCc2ccccc2)cc1)C(=O)OC(C)(C)C (relative stereo) [Example 59, [S-(R*,R*)]-3-(4-Benzyloxy-phenyl)-2-[2-(3-butyl-ureido)-4-methyl-pentanoylamino]-propionic acid tert-butyl ester]	41
CC(C)C[C@H](NC(=O)NCc1ccccc1)C(=O)N[C@@H](Cc1ccc(OCc2ccccc2)cc1)C(=O)OC(C)(C)C (relative stereo) [Example 60, [S-(R*,R*)]-3-(4-Benzyloxy-phenyl)-2-[2-(3-benzyl-ureido)-4-methyl-pentanoylamino]-propionic acid tert-butyl ester]	24
Cc1ccccc1NC(=O)N[C@@H](CC(C)C)C(=O)N[C@@H](Cc1ccc(OCc2ccccc2)cc1)C(=O)OC(C)(C)C (relative stereo) [Example 61, [S-(R*,R*)]-3-(4-Benzyloxy-phenyl)-2-[4-methyl-2-(3-o-tolyl-ureido)-pentanoylamino]-propionic acid tert-butyl ester]	34
Cc1cccc(C)c1NC(=O)N[C@@H](CC(C)C)C(=O)N[C@@H](Cc1ccc(OCc2ccccc2)cc1)C(=O)OC(C)(C)C (relative stereo) [Example 62, [S-(R*,R*)]-3-(4-Benzyloxy-phenyl)-2-{2-[3-(2,6-dimethyl-phenyl)-ureido]-4-methyl-pentanoylamino}-propionic acid tert-butyl ester]	29
CSc1ccc(NC(=O)N[C@@H](CC(C)C)C(=O)N[C@@H](Cc2ccc(OCc3ccccc3)cc2)C(=O)OC(C)(C)C)cc1 (relative stereo) [Example 64, [S-(R*,R*)]-3-(4-Benzyloxy-phenyl)-2-{4-methyl-2-[3-(4-methylsulfanyl-phenyl)-ureido]-pentanoylamino}-propionic acid tert-butyl ester]	31
CC(C)C[C@H](NC(=O)Nc1ccc(Oc2ccccc2)cc1)C(=O)N[C@@H](Cc1ccc(OCc2ccccc2)cc1)C(=O)OC(C)(C)C (relative stereo) [Example 65, [S-(R*,R*)]-3-(4-Benzyloxy-phenyl)-2-{4-methyl-2-[3-(4-phenoxy-phenyl)-ureido]pentanoylamino}-propionic acid tert-butyl ester]	28
COc1ccc(NC(=O)N[C@@H](CC(C)C)C(=O)N[C@@H](Cc2ccc(OCc3ccccc3)cc2)C(=O)OC(C)(C)C)cc1 (relative stereo) [Example 68, [S-(R*,R*)]-3-(4-Benzyloxy-phenyl)-2-{2-[3-(4-methoxy-phenyl)-ureido]-4-methyl-pentanoylamino}-propionic acid tert-butyl ester]	31
CC(C)C[C@H](NC(=O)Nc1ccc(F)cc1F)C(=O)N[C@@H](Cc1ccc(OCc2ccccc2)cc1)C(=O)OC(C)(C)C (relative stereo) [Example 69, [S-(R*,R*)]-3-(4-Benzyloxy-phenyl)-2-{2-[3-(2,4-difluoro-phenyl)-ureido]-4-methyl-pentanoylamino}-propionic acid tert-butyl ester]	31
CC(C)C[C@H](NC(=O)Nc1ccc(C(F)(F)F)cc1)C(=O)N[C@@H](Cc1ccc(OCc2ccccc2)cc1)C(=O)OC(C)(C)C (relative stereo) [Example 70, [S-(R*,R*)]-3-(4-Benzyloxy-phenyl)-2-{4-methyl-2-[3-(4-trifluoromethyl-phenyl)-ureido]-pentanoylamino}-propionic acid tert-butyl ester]	25

Same assay, conditions: 10 μM

Compound	Inhibition of Calcium Flux in IMR-32 Cells % Inhibition at 10 μM [%]
CCCCNC(=O)N[C@@H](CC(C)C)C(=O)N[C@@H](Cc1ccc(OCc2ccccc2)cc1)C(=O)OC(C)(C)C (relative stereo) [Example 59, [S-(R*,R*)]-3-(4-Benzyloxy-phenyl)-2-[2-(3-butyl-ureido)-4-methyl-pentanoylamino]-propionic acid tert-butyl ester]	61
